According to the supplement of paper PMC4862054:

Assays:
Conditions in all cases: incubation time: 72 h
[1] = system: MDA-MB-231; experiment: normalised viability (% of control), CellTiter-Blue; higher = more viable cells (100 = DMSO, 0 = benzethonium chloride kill control)
Procedure, shortened: (§1)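 Compound dissolved in 5 µl medium was pre-loaded into 384-well plates, and breast cancer cell lines in 20 µl suspension were seeded on top and incubated 72 h. After adding 2.5 µl CellTiter-Blue reagent for 2 h at 37 °C, fluorescence was read at 560/590 nm. Plates were normalised to vehicle (100) and a positive kill control (0), with Z'-factor quality control. Each value is normalised viability at a single listed concentration from the series.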

[2] = system: HCC1937; experiment: as above
Procedure, shortened: as §1

[3] = system: MDA-MB-453; experiment: as above
Procedure, shortened: as §1

[4] = system: Hs578T; experiment: as above
Procedure, shortened: as §1

[5] = system: BT-549; experiment: as above
Procedure, shortened: as §1

[6] = system: MFM-223; experiment: as above
Procedure, shortened: as §1

[7] = system: HCC1143; experiment: as above
Procedure, shortened: as §1

[8] = system: BT-474; experiment: as above
Procedure, shortened: as §1

[9] = system: CAL-120; experiment: as above
Procedure, shortened: as §1

[10] = system: DU-4475; experiment: as above
Procedure, shortened: as §1

[11] = system: MDA-MB-468; experiment: as above
Procedure, shortened: as §1

[12] = system: CAL-85-1; experiment: as above
Procedure, shortened: as §1

[13] = system: HDQ-P1; experiment: as above
Procedure, shortened: as §1

[14] = system: SK-BR-3; experiment: as above
Procedure, shortened: as §1

[15] = system: HCC1599; experiment: as above
Procedure, shortened: as §1

[16] = system: CAL-148; experiment: as above
Procedure, shortened: as §1

[17] = system: MDA-MB-436; experiment: as above
Procedure, shortened: as §1

[18] = system: CAL-51; experiment: as above
Procedure, shortened: as §1

[19] = system: MDA-MB-231; experiment: normalised response (% of control), CellTiter-Glo; higher = more viable cells (100 = DMSO, 0 = benzethonium chloride kill control)
Procedure, shortened: (§2)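 Each value is the plate-normalised signal at one concentration of the series. Breast cancer cell lines (20 µl suspension) were incubated 72 h in 384-well plates with compound at 5 concentrations in 10-fold steps over a compound-specific 10,000-fold range. CellTox Green and then CellTiter-Glo were read, and each plate was scaled to 0.1 % DMSO (100) and a positive kill control (0).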

[20] = system: HCC1937; experiment: as above
Procedure, shortened: as §2

[21] = system: MDA-MB-453; experiment: as above
Procedure, shortened: as §2

[22] = system: Hs578T; experiment: as above
Procedure, shortened: as §2

[23] = system: MCF-10A; experiment: as above
Procedure, shortened: as §2

[24] = system: BT-549; experiment: as above
Procedure, shortened: as §2

[25] = system: MFM-223; experiment: as above
Procedure, shortened: as §2

[26] = system: HCC1143; experiment: as above
Procedure, shortened: as §2

[27] = system: BT-474; experiment: as above
Procedure, shortened: as §2

[28] = system: CAL-120; experiment: as above
Procedure, shortened: as §2

[29] = system: DU-4475; experiment: as above
Procedure, shortened: as §2

[30] = system: MDA-MB-468; experiment: as above
Procedure, shortened: as §2

[31] = system: CAL-85-1; experiment: as above
Procedure, shortened: as §2

[32] = system: HDQ-P1; experiment: as above
Procedure, shortened: as §2

[33] = system: SK-BR-3; experiment: as above
Procedure, shortened: as §2

[34] = system: HCC1599; experiment: as above
Procedure, shortened: as §2

[35] = system: CAL-148; experiment: as above
Procedure, shortened: as §2

[36] = system: MDA-MB-436; experiment: as above
Procedure, shortened: as §2

[37] = system: CAL-51; experiment: as above
Procedure, shortened: as §2

| SMILES | normalised viability [1] | normalised viability [2] | normalised viability [3] | normalised viability [4] | normalised viability [5] | normalised viability [6] | normalised viability [7] | normalised viability [8] | normalised viability [9] | normalised viability [10] | normalised viability [11] | normalised viability [12] | normalised viability [13] | normalised viability [14] | normalised viability [15] | normalised viability [16] | normalised viability [17] | normalised viability [18] | normalised response [19] | normalised response [20] | normalised response [21] | normalised response [22] | normalised response [23] | normalised response [24] | normalised response [25] | normalised response [26] | normalised response [27] | normalised response [28] | normalised response [29] | normalised response [30] | normalised response [31] | normalised response [32] | normalised response [33] | normalised response [34] | normalised response [35] | normalised response [36] | normalised response [37] |
| --- | --- | --- | --- | --- | --- | --- | --- | --- | --- | --- | --- | --- | --- | --- | --- | --- | --- | --- | --- | --- | --- | --- | --- | --- | --- | --- | --- | --- | --- | --- | --- | --- | --- | --- | --- | --- | --- |
| COc1ccc(C2=N[C@@H](c3ccc(Cl)cc3)[C@@H](c3ccc(Cl)cc3)N2C(=O)N2CCNC(=O)C2)c(OC(C)C)c1 [Nutlin-3] (1 nM) | 101% | 71.5% | 102% | 95.9% | 107% | 89.4% | 89.8% | 110% | 78.7% | 82.5% | 92.8% | 90.5% | 89% | 95.6% | 91.6% | 104% | 101% | 96.3% | 105% | 103% | 114% | 103% | 101% | 97.7% | 101% | 103% | 99.8% | 94.6% | 106% | 98.6% | 102% | 105% | 106% | 104% | 115% | 119% | 84.8% |
| COC1=CC(c2cc3ccccc3[nH]2)=N/C1=C\c1[nH]c(C)cc1C [Obatoclax] (1 nM) | 71.4% | 90.5% | 86.2% | 103% | 90.6% | 81% | 81% | 96.2% | 79.6% | 93.6% | 99% | 78.3% | 78.8% | 74.9% | 85.6% | 94.7% | 83.5% | 105% | 96.6% | 95.4% | 90.6% | 93.5% | 87% | 97.7% | 92.8% | 92.5% | 96.6% | 96.4% | 100% | 98.7% | 95% | 92.9% | 89% | 87.7% | 87.8% | 95.6% | 111% |
| COC(=O)C[C@](O)(CCCC(C)(C)O)C(=O)O[C@@H]1C(OC)=C[C@]23CCCN2CCc2cc4c(cc2[C@H]13)OCO4 [Omacetaxine] (1 nM) | 97.3% | 96.5% | 91.6% | 106% | 95.4% | 90.3% | 91.7% | 101% | 82% | 93.6% | 95.2% | 90.6% | 84.7% | 97.3% | 78.4% | 107% | 91.1% | 96.3% | 104% | 98.3% | 121% | 101% | 108% | 92.1% | 103% | 109% | 106% | 99.8% | 96% | 108% | 101% | 104% | 108% | 88.4% | 110% | 97.1% | 79.9% |
| CC(=O)O[C@H]1C(=O)[C@@]2(C)[C@H]([C@H](OC(=O)c3ccccc3)[C@]3(O)C[C@H](OC(=O)[C@H](O)[C@@H](NC(=O)c4ccccc4)c4ccccc4)C(C)=C1C3(C)C)[C@]1(OC(C)=O)CO[C@@H]1C[C@@H]2O [Paclitaxel] (0.1 nM) | 73.8% | 84.3% | 97.5% | 103% | 116% | 93.9% | 106% | 82% | 90.6% | 115% | 105% | 98.2% | 82.6% | 90.2% | 102% | 106% | 95.8% | 93.8% | 96.6% | 90.5% | 89.9% | 100% | 87.9% | 100% | 89.9% | 93.6% | 95.5% | 89.7% | 93.8% | 95.7% | 99.2% | 96.4% | 88.4% | 100% | 89.6% | 98.7% | 103% |
| CC(C)(C)c1cc(NC(=O)Nc2ccc(-c3cn4c(n3)sc3cc(OCCN5CCOCC5)ccc34)cc2)no1 [Quizartinib] (0.1 nM) | 105% | 109% | 113% | 120% | 92.8% | 81.8% | 99.6% | 115% | 99.7% | 117% | 92.3% | 89.4% | 74.7% | 90.9% | 89.4% | 105% | 98.1% | 103% | 106% | 103% | 105% | 99.8% | 101% | 96.2% | 108% | 100% | 108% | 103% | 104% | 107% | 110% | 99.5% | 109% | 112% | 110% | 101% | 87.7% |
| O=C(c1ccc(OCCN2CCCCC2)cc1)c1c(-c2ccc(O)cc2)sc2cc(O)ccc12 [Raloxifene] (1 nM) | 87.1% | 88.3% | 85% | 99.8% | 95.2% | 91.2% | 86.1% | 71.6% | 90.7% | 110% | 105% | 103% | 101% | 90.8% | 101% | 98.2% | 91.6% | 96.8% | 101% | 102% | 105% | 108% | 109% | 104% | 99.6% | 109% | 99.7% | 97.9% | 102% | 101% | 101% | 107% | 110% | 97% | 108% | 105% | 114% |
| Cn1c(=O)c(F)c(Nc2ccc(I)cc2F)c2c(=O)n(C[C@@H](O)CO)cnc21 [TAK-733] (0.1 nM) | 105% | 88.7% | 111% | 128% | 101% | 99.9% | 101% | 68.7% | 87.1% | 112% | 95.8% | 90.7% | 120% | 97.9% | 73.2% | 105% | 105% | 101% | 105% | 100% | 115% | 101% | 114% | 91.8% | 108% | 102% | 103% | 98% | 99.4% | 102% | 96.6% | 97.1% | 111% | 94.3% | 104% | 96.2% | 74% |
| CCS(=O)(=O)c1cccc(-c2cc(C(=O)NC3CCN(C)CC3)c(C)c3[nH]c4ncc(C)cc4c23)c1 [TAK-901] (0.1 nM) | 104% | 105% | 96.1% | 109% | 112% | 96.7% | 94.9% | 76.6% | 87.2% | 85.1% | 95.9% | 83.7% | 111% | 92% | 87% | 102% | 108% | 90.9% | 101% | 91.8% | 117% | 111% | 109% | 106% | 106% | 108% | 101% | 97.4% | 106% | 100% | 103% | 98.9% | 113% | 108% | 101% | 93.8% | 122% |
